# How the values were obtained:
# Assay type in all cases: biochemical
# TYK2 = TYK2 (Homo sapiens, UniProt P29597); assay: JAK kinase activity, homogeneous time-resolved fluorescence (TYK2 reaction system); conditions: ATP 2 μM, TYK2 protein 0.2 ng/μL; read-out: TYK 2 activity
# Procedure, shortened: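 Activity read as the 665 nm/615 nm ratio after adding EDTA-containing detection mix with anti-phospho-substrate antibody and XL-615. Beforehand, 0.2 ng/μL TYK2, 2 μM ATP, substrate and compound reacted 1 h in pH 7.0 Hepes buffer with MgCl2 and DTT. IC50 fitted with Hill-slope equation.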
# JAK2 = JAK2 (Homo sapiens, UniProt O60674); assay: JAK kinase activity, homogeneous time-resolved fluorescence (JAK2 reaction system); conditions: ATP 2 μM, JAK2 protein 0.01 ng/μL
# Procedure, shortened: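 IC50 derived by Hill-equation fit of the 665/615 nm time-resolved fluorescence ratio after EDTA-containing detection mix with anti-phosphosubstrate antibody. Preceding 1 h reaction contained 2 μM ATP, 0.01 ng/μL JAK2, substrate, 50 mM Hepes pH 7.0, 5 mM MgCl2, 1 mM DTT.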
# JAK3 = target: T1, JAK3 (Homo sapiens, UniProt P52333); assay: JAK kinase activity, homogeneous time-resolved fluorescence (JAK3 reaction system); conditions: ATP 2 μM, JAK3 protein 0.04 ng/μL; read-out: JAK 3 activity
# T1 sequence (P52333 1-1124): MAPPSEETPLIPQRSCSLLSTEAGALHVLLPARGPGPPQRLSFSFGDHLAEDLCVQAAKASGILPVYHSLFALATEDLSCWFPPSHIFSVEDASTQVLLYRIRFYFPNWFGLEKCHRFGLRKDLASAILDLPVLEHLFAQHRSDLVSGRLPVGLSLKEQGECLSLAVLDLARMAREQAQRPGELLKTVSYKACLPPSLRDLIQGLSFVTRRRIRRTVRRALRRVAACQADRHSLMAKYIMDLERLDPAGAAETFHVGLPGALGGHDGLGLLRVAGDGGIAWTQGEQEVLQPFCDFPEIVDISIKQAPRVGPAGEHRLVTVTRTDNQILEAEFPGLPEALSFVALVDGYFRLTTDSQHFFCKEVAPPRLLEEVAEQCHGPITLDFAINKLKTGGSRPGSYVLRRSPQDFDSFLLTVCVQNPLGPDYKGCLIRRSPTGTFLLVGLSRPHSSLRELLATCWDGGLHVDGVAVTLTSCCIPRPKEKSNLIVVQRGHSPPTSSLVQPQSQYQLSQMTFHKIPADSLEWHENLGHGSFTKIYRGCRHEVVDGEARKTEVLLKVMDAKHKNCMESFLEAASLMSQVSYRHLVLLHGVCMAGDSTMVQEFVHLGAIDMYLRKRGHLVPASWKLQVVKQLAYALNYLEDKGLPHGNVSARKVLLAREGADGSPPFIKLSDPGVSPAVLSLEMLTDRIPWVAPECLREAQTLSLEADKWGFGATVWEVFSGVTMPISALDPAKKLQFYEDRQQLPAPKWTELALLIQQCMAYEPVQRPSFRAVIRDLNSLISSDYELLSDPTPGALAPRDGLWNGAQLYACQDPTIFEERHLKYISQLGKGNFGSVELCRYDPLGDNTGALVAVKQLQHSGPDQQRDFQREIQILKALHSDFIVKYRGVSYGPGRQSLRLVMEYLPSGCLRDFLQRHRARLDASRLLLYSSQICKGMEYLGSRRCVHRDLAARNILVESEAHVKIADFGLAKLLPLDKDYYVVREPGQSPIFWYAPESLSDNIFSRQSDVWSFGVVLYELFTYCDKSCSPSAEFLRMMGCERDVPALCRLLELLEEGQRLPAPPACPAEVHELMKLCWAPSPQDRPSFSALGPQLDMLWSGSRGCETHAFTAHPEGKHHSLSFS
# JAK1 = JAK1 (Homo sapiens, UniProt P23458); assay: JAK kinase activity, homogeneous time-resolved fluorescence (JAK1 reaction system); conditions: ATP 2 μM, JAK1 protein 0.2 ng/μL; read-out: JAK 1 activity
# Procedure, shortened: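 Kinase activity read as the 665 nm/615 nm time-resolved fluorescence ratio (320 nm excitation) after EDTA-containing antibody and XL-615 addition. Reaction ran 1 h at pH 7.0 (Hepes, MgCl2, DTT) with 0.2 ng/μL JAK1 and ATP at 2 μM. IC50 derived by Hill-slope fit.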
# Chain of JAK1 (P23458 whole entry): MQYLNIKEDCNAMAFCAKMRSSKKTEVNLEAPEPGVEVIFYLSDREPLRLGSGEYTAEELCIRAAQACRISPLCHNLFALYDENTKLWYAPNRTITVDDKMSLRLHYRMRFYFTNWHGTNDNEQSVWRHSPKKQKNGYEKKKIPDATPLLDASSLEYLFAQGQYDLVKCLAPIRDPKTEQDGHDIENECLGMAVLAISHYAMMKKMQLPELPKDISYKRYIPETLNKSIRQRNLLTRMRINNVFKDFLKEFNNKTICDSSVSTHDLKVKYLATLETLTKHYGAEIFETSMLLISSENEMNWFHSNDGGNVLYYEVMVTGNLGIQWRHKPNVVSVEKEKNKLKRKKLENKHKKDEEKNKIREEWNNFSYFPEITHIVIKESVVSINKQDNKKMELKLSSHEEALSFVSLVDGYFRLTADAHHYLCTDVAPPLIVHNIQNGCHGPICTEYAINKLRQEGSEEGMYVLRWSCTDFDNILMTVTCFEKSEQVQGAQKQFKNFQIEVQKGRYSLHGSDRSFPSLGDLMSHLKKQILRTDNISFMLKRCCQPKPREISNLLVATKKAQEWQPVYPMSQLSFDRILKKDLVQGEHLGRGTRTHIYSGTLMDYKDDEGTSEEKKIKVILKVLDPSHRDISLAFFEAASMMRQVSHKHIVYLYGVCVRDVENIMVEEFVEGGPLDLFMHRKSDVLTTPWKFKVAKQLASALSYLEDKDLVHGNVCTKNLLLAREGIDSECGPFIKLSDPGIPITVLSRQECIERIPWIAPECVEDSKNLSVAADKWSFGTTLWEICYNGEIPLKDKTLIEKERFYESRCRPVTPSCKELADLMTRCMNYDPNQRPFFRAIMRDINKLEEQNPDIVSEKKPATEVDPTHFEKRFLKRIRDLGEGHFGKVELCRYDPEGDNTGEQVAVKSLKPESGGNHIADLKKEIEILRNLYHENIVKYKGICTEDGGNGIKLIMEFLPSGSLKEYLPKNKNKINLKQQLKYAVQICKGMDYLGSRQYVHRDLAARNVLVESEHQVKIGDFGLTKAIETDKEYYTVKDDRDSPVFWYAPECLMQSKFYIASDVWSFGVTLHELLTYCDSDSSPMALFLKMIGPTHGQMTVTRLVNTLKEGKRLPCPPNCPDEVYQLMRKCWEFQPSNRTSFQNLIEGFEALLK
# Chain of JAK2 (O60674 whole entry): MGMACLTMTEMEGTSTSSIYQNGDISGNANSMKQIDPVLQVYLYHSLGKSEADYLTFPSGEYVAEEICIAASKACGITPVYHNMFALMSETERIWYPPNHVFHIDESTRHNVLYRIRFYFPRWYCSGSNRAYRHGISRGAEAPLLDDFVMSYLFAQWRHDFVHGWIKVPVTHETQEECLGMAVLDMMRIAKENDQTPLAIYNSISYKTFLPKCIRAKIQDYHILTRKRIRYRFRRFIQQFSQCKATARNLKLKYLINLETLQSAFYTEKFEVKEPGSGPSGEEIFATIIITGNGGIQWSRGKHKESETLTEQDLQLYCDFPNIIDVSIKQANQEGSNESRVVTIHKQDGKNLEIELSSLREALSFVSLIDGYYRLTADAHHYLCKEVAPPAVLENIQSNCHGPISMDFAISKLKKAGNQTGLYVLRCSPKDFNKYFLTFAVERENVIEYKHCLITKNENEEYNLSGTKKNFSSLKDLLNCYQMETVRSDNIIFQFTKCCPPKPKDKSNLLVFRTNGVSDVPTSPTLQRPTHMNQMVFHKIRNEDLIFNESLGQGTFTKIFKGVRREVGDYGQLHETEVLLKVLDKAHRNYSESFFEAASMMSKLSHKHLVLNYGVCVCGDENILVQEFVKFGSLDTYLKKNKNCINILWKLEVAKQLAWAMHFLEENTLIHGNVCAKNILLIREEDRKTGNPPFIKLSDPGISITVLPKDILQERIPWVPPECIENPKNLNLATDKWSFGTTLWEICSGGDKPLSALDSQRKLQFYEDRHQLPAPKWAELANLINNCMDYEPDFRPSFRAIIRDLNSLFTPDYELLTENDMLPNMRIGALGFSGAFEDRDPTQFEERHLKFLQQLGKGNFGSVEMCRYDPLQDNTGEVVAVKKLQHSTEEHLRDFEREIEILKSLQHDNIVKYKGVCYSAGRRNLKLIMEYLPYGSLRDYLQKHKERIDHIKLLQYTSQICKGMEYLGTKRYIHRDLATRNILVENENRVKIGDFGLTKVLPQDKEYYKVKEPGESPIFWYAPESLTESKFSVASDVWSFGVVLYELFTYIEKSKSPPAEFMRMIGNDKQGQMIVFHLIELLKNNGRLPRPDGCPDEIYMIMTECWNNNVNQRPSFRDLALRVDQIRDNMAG
# Chain of TYK2 (P29597 whole entry): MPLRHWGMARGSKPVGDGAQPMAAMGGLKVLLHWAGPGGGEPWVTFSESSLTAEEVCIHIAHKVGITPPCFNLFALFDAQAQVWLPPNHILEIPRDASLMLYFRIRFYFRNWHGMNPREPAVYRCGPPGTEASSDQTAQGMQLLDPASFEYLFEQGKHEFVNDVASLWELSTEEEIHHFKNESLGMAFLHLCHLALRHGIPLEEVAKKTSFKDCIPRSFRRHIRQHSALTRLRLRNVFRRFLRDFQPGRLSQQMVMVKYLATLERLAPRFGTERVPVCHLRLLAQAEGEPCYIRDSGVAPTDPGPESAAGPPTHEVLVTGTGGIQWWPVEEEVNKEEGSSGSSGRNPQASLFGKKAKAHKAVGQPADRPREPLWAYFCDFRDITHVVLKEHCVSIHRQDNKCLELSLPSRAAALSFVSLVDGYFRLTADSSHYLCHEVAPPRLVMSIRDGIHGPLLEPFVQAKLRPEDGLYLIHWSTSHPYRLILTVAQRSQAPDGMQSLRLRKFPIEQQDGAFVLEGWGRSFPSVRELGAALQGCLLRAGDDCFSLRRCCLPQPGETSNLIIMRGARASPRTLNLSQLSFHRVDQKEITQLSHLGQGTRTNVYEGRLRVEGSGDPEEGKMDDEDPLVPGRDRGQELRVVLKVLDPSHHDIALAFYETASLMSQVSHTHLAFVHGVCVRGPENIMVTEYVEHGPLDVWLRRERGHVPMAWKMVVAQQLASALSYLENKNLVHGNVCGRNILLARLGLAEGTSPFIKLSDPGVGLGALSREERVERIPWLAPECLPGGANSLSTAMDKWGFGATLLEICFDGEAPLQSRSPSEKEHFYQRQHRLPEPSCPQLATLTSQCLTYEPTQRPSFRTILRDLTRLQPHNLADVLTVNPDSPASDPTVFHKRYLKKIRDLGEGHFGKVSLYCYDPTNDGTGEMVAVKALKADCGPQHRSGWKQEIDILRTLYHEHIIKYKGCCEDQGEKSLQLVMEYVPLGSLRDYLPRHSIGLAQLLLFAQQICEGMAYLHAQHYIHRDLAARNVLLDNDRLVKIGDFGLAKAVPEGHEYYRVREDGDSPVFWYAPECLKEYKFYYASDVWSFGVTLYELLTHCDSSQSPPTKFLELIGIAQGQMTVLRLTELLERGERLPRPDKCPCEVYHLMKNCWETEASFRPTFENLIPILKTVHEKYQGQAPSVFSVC
Structure (SMILES),IC50 (TYK2),IC50 (JAK2),IC50 (JAK3),IC50 (JAK1)
"O=C1NCCCCOCc2cc(ccc2F)Nc2nccc(n2)-c2ccc1cc2[N+](=O)[O-] [Example 68, 4^4-fluoro-1^2-nitro-6-oxa-3,11-diaza-2(4,2)-pyrimidina-1(1,4),4(1,3)-di-benzenacyclododecaphan-12-one]",> 10000 nM,1000 to 10000 nM,101 to 1000 nM,1000 to 10000 nM
"CN1CCN(c2ccc3cc2COCCCCNC(=O)c2ccc(c(N)c2)-c2ccnc(n2)N3)CC1 [Example 70, 1^2-amino-4^4-(4-methylpiperazin-1-yl)-6-oxa-3,11-diaza-2(4,2)-pyrimidi-na-1(1,4),4(1,3)-dibenzenacyclo-dodecaphan-12-one]",1000 to 10000 nM,101 to 1000 nM,11 to 100 nM,1000 to 10000 nM
"O=C1NCCCCOCc2cc(ccc2OC2CCC2)Nc2nccc(n2)-c2ccc1cc2[N+](=O)[O-] [Example 71, 4^4-cyclobutoxy-1^2-nitro-6-oxa-3,11-diaza-2(4,2)-pyrimidina-1(1,4),4(1,3)-dibenzenacyclododecaphan-12-one]",> 10000 nM,> 10000 nM,1000 to 10000 nM,> 10000 nM
"O=C1NCCCCOCc2cc(ccc2OC2COC2)Nc2nccc(n2)-c2ccc1cc2[N+](=O)[O-] [Example 72, 1^2-nitro-4^4-(oxetan-3-oxy)-6-oxa-3,11-diaza-2(4,2)-pyrimidina-1(1,4),4(1,3)-dibenzenacyclododecaphan-12-one]",> 10000 nM,1000 to 10000 nM,101 to 1000 nM,1000 to 10000 nM
"O=C1NCCCCOCc2cc(ccc2OC2CC2)Nc2nccc(n2)-c2ccc1cc2[N+](=O)[O-] [Example 73, 4^4-cyclopropoxy-1^2-nitro-6-oxa-3,11-diaza-2(4,2)-pyrimidina-1(1,4),4(1,3)-dibenzenacyclododecaphan-12-one]",> 10000 nM,1000 to 10000 nM,101 to 1000 nM,1000 to 10000 nM
"O=C1NCCCCOCc2cc(cc(N3CCSCC3)c2)Nc2nccc(n2)-c2ccc1cc2[N+](=O)[O-] [Example 76, 1^2-nitro-4^5-thiomorpholin-6-oxa-3,11-diaza-2(4,2)-pyrimidina-1(1,4),4(1,3)-dibenzenacyclododecaphan-12-one]",> 10000 nM,101 to 1000 nM,101 to 1000 nM,1000 to 10000 nM
"Nc1cc2ccc1-c1ccnc(n1)Nc1cc(cc(N3CCSCC3)c1)COCCCCNC2=O [Example 77, 1^2-amino-4^5-thiomorpholin-6-oxa-3,11-diaza-2(4,2)-pyrimidina-1(1,4),4(1,3)-dibenzenacyclododecaphan-12-one]",101 to 1000 nM,11 to 100 nM,11 to 100 nM,101 to 1000 nM
"Nc1cc2ccc1-c1ccnc(n1)Nc1ccc(OC3CCC3)c(c1)COCCCCNC2=O [Example 79, 1^2-amino-4^4-cyclobutoxy-6-oxa-3,11-diaza-2(4,2)-pyrimidina-1(1,4),4(1,3)-dibenzenacyclododecaphan-12-one]",1000 to 10000 nM,101 to 1000 nM,11 to 100 nM,101 to 1000 nM
"O=C1NC2CCC(CC2)COCc2cc(ccc2N2CCOCC2)Nc2nccc(n2)-c2ccc1cc2 [Example 80, 4^4-morpholine-6-oxa-3,9-diaza-2(4,2)-pyrimidina-1(1,4),4(1,3)-dibenze-na-8(1,4)-cyclododecaphan-10-one]",> 10000 nM,1000 to 10000 nM,1000 to 10000 nM,1000 to 10000 nM
"O=C1NCCCCOCc2cc(ccc2O)Nc2nccc(n2)-c2ccc1cc2[N+](=O)[O-] [Example 81, 4^4-hydroxy-1-nitro-6-oxa-3,11-diaza-2(4,2)-pyrimidina-1(1,4),4(1,3)-di-benzenacyclododecaphan-12-one]",> 10000 nM,1000 to 10000 nM,101 to 1000 nM,1000 to 10000 nM
"Nc1cc2ccc1-c1ccnc(n1)Nc1cc(F)c(OC3CCOCC3)c(c1)COCCCCNC2=O [Example 84, 1^2-amino-4^5-fluoro-4^4-((tetrahydro-2H-pyran-4-yl)oxy)-6-oxa-3,11-dia-za-2(4,2)-pyrimidina-1(1,4),4(1,3)-dibenzenacyclododecaphan-12-one]",1000 to 10000 nM,101 to 1000 nM,11 to 100 nM,101 to 1000 nM

# More lines, now with the values ahead:
IC50 (TYK2),IC50 (JAK2),IC50 (JAK3),IC50 (JAK1),Structure (SMILES)
1000 to 10000 nM,101 to 1000 nM,< 10 nM,101 to 1000 nM,"CC(C)Oc1ccc2cc1COCCCCNC(=O)c1ccc(c(N)c1)-c1ccnc(n1)N2 [Example 67, 1^2-amino-4^4-isopropoxy-6-oxa-3,11-diaza-2(4,2)-pyrimidina-1(1,4),4(1,3)-dibenzenacyclododecaphan-12-one]"
1000 to 10000 nM,101 to 1000 nM,11 to 100 nM,1000 to 10000 nM,"Nc1cc2ccc1-c1ccnc(n1)Nc1ccc(F)c(c1)COCCCCNC2=O [Example 69, 1^2-amino-4^4-fluoro-6-oxa-3,11-diaza-2(4,2)-pyrimidina-1(1,4),4(1,3)-di-benzenacyclododecaphan-12-one]"
1000 to 10000 nM,101 to 1000 nM,< 10 nM,1000 to 10000 nM,"Nc1cc2ccc1-c1ccnc(n1)Nc1ccc(OC3CC3)c(c1)COCCCCNC2=O [Example 74, 1^2-amino-4^4-cyclopropoxy-6-oxa-3,11-diaza-2(4,2)-pyrimidina-1(1,4),4(1,3)-dibenzenacyclododecaphan-12-one]"
1000 to 10000 nM,101 to 1000 nM,11 to 100 nM,1000 to 10000 nM,"Nc1cc2ccc1-c1ccnc(n1)Nc1ccc(OC3COC3)c(c1)COCCCCNC2=O [Example 75, 1^2-amino-4^4-(oxetan-3-oxy)-6-oxa-3,11-diaza-2(4,2)-pyrimidina-1(1,4),4(1,3)-dibenzenacyclododecaphan-12-one]"
> 10000 nM,101 to 1000 nM,11 to 100 nM,1000 to 10000 nM,"Cc1cc2ccc1-c1ccnc(n1)Nc1ccc(N)c(c1)COCCCCNC2=O [Example 78, 4^4-amino-1^2-methyl-6-oxa-3,11-dia-za-2(4,2)-pyrimidina-1(1,4),4(1,3)-dibenzenacyclododecaphan-12-one]"
> 10000 nM,1000 to 10000 nM,1000 to 10000 nM,1000 to 10000 nM,"CNc1cc2ccc1-c1ccnc(n1)Nc1ccc(OC3CC3)c(c1)COCCCCNC2=O [Example 82, 4^4-cyclopropoxy-1^2-methylamino-6-oxa-3,11-diaza-2(4,2)-pyrimidina-1(1,4),4(1,3)-dibenzenacyclododeca-phan-12-one]"
> 10000 nM,1000 to 10000 nM,> 10000 nM,1000 to 10000 nM,"CN(C)c1cc2ccc1-c1ccnc(n1)Nc1ccc(OC3CC3)c(c1)COCCCCNC2=O [Example 83, 4^4-cyclopropxy-1^2-dimethylamino-6-oxa-3,11-diaza-2(4,2)-pyrimidina-1(1,4),4(1,3)-dibenzenacyclododeca-phan-12-one]"
> 10000 nM,101 to 1000 nM,11 to 100 nM,101 to 1000 nM,"CC(C)Oc1c(F)cc2cc1COCCCCNC(=O)c1ccc(c(N)c1)-c1ccnc(n1)N2 [Example 85, 1^2-amino-4^5-fluoro-4^4-isopropoxy-6-oxa-3,11-diaza-2(4,2)-pyrimidina-1(1,4),4(1,3)-dibenzenacyclododeca-phan-12-one]"
> 10000 nM,1000 to 10000 nM,101 to 1000 nM,1000 to 10000 nM,"CNc1cc2ccc1-c1ccnc(n1)Nc1ccc(OC(C)C)c(c1)COCCCCNC2=O [Example 86, 4^4-isopropoxy-1^2-methyalmino-6-o-xa-3,11-diaza-2(4,2)-pyrimidina-1(1,4),4(1,3)-dibenzenacyclododecaphan-12-one]"

# Reference: patent US20230203059A1, “MACROCYCLIC JAK INHIBITOR AND USES THEREOF” (Biopolar Hongye (Guangdong) Pharmaceutical Co. Ltd., priority 2020, published 2023)
